This is an account of results in patent US9828351B2, “Enzyme interacting agents” (MONASH UNIVERSITY, priority 2014, dated 2017).

The target in experiment [1] is T1, Dihydroceramide Desaturase-1 (Des1) (Homo sapiens, UniProt O15121).
T1 construct: These modifications included the use of parental Jurkat cells; endogenous in cells; host or cells: parental Jurkat cells
T1 sequence (O15121 1-323): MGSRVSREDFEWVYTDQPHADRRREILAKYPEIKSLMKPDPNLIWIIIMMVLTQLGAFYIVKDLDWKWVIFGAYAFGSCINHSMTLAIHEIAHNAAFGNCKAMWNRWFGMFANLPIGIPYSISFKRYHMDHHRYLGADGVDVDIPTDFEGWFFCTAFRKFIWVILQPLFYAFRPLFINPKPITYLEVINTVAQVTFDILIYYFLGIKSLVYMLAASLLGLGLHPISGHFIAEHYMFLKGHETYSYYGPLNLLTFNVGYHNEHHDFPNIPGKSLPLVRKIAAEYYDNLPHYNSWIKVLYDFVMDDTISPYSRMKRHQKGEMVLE
Description: Dihydroceramide desaturase-1 (Des1) activity by HPLC in intact Jurkat cells labeled with DhCer-C6-NBD. The experiment is classed as cell-based. The protocol: Measurement of Dihydroceramide Desaturase-1 (Des1) Activity:
These modifications included the use of parental Jurkat cells, 0.5% serum in the culture media, and cell harvesting via centrifugation at 500×g to maximise ceramide extraction. Extracted samples (50 ul) were analysed on a Waters HPLC coupled to a fluorescence detector using a 30 cm C18 reverse-phase column eluted with 1 ml/min 20% H2O and 80% acetonitrile, both with a 0.1% of trifluoroacetic acid.

Experiment [2] has as its target T2, recombinant his tagged human SphK1 (Homo sapiens, UniProt Q9NYA1).
T2 construct: His tag; made in house; host or cells: insect cells (baculovirus system)
The experiment in a line: SphK1 activity assay (32P-labelled S1P production). The experiment is classed as biochemical. To be noted: 10 μM compound; % of activity compared to control (DMSO vehicle only). The protocol: (§1) The SphK assays employed, measure SphK activity through the production of ^32P-labelled S1P following the addition of exogenous Sph and [γ^32P] ATP.
(§2) Activities of SphK1 and SphK2 were determined using identical assay conditions with the exception that SphK1 assays used 3 ng/assay recombinant his tagged human SphK1 (made in the lab in a baculovirus system using insect cells), while SphK2 assays used 30 ng/assay recombinant human SphK2 (purchased by Johnson and Johnson).
(§3) Compounds were dissolved in DMSO at 10 mM, the mixture was vortexed (and sonicated if necessary). Stock solutions were kept at 4° C. until used.
(§4) Aliquots were made containing 100 μM drug compound. These aliquots were then diluted in assay buffer: 100 mM tris/HCl pH 7.4, 100 mM NaCl, 1 mM sodium orthovanadate, 10 mM NaF to make up a 10 μM solution.
(§5) Recombinant enzyme was diluted in assay buffer (above) to make up a final concentration of 0.03 ng/μL (SphK1) or 0.33 ng/μL (SphK2).
(§6) 40 μL recombinant enzyme was added to an Eppendorf® Safe-Lock® microcentrifuge tube. This was followed by the addition of drug compound from prepared aliquots, before adding ATP, [γ^32P]ATP and Sph. Note: ATP stock is made up in 1M Tris pH 7.4 and 200 mM MgCl2. This allows ATP to complex with Mg and be available as a substrate.
(§7) The rest of the reaction mixture was then added to the enzyme sample (Table 1). All reactions were performed as triplicates.
(§8) Reaction mixture was prepared with sufficient volume to assay all of the required samples. To do this, each of the volumes shown was multiplied by n+1, where n is the number of samples to be assayed. Assay buffer used is made up of 100 mM tris/HCl pH 7.4, 100 mM NaCl, 1 mM sodium orthovanadate and 10 mM NaF.
(§9) The mixture was then incubated at 37° C. for 20 min (SphK1)/45 min (SphK2).
(§10) To the 100 μL assay mixture, add 270 μl of chloroform/methanol/conc. HCl (100:200:1).
(§11) 20 μL of 5 M KCl was then added to the assay mixture.
(§12) 70 μL of chloroform was added to create phase separation. The solution was vortexed to mix well.
(§13) The solution was then centrifuged for 5 min at 13,000×g to fully separate the phases.
(§14) The upper aqueous/methanol phase was separated by aspiration.
(§15) 50 μL of the remaining lower chloroform phase […] was applied onto the TLC plate by repeatedly spotting a few microliters of liquid (<5 mm diameter circle) between each sample spot with the pipette tip. The liquid was then allowed to absorb into the plate before drying with a stream of air.
(§16) The TLC plate was developed in a glass TLC developing tank with 1-butanol/ethanol/glacial acetic acid/H2O (8:2:1:2) until the mobile phase is within 1 cm of the top of the TLC plate.
(§17) The TLC plate was then exposed to a storage phosphor screen overnight. Storage phosphor screens work by capturing images produced by ionising radiation (e.g. ^32P). The phosphorimager stimulates the screen which uses lasers to convert the latent signal to light. Light is proportional to the amount of radioactivity in the sample. The image is then quantified using standard quantification software (ImageQuant™). Whatman paper with the assay mixture dilutions, was included to assist quantification of the phosphor signal.
(§18) Once the storage phosphor screen was read using the phosphorimager, S1P spots, which have an Rf of 0.7 with the mobile phase employed, were quantified.
(§19) The S1P spot intensity can be converted to the amount of phosphate transferred/min/mg protein.

The target in another experiment is T3, recombinant human SphK2 (Homo sapiens, UniProt Q9NRA0).
T3 construct: purchased Johnson and Johnson
T3 sequence (Q9NRA0 1-654): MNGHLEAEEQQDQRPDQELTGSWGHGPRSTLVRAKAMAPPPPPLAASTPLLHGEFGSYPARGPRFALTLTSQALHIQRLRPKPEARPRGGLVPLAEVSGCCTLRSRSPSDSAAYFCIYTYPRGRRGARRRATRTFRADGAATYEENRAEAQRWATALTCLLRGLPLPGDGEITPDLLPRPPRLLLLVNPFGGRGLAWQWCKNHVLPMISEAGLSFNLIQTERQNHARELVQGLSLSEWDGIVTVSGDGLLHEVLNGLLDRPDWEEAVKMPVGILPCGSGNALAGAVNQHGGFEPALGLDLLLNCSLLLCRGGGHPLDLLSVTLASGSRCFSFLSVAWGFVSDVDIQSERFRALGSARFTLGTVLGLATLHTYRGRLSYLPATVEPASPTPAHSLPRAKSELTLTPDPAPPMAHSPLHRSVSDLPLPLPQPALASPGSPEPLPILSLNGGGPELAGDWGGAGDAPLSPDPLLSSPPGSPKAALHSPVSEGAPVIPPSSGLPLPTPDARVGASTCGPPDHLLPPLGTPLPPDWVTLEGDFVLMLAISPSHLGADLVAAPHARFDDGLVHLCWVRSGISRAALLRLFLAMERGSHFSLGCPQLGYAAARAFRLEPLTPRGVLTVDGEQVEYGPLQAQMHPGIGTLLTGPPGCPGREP
Description: SphK2 activity assay (32P-labelled S1P production). In kind it is biochemical. The conditions noted are these: 10 μM compound; % of activity compared to control (DMSO vehicle only); read-out: SphK2% actvity at 10 μm. The protocol:
as §1, §2, §3, §4, §5, §6, §7, §8, §9, §10, §11, §12, §13, §14, §15, §16, §17, §18, §19

Experiment [3] relates to PC3 prostate cancer cell lines. The experiment in a line: Anticancer activity in PC3 cell line, CellTitre AQueous One cell viability assay. The conditions noted are these: Homo sapiens, PC-3; concentration required to inhibit cell proliferation by 50%; 72 hours. The experiment is classed as cell-based. The protocol:
Measurement of Anticancer Activity in PC3 Cell Line Assays
PC3 prostate cancer cell lines were cultured in DMEM (containing 10% fetal calf serum and penicillin-streptomycin).
Before treatment with drug compounds, cells were plated at 2,500 cells/well in 96 well plates and incubated at 37° C. with 5% CO2 in a humidified incubator for 24 hours prior. Cells were only plated in columns 3-10 and rows C—F to ensure uniform humidity and warmth across all wells. The remaining wells were filled with 100 μL of phosphate buffered saline.
Drug stock solutions (50 or 10 mM) were diluted×1000 in media to a final concentration of either 50 μM or 10 μM with a DMSO vehicle concentration of 0.1%.
Cell culture supernatants were aspirated and replaced with drug containing media. Drug treatments were performed in duplicate wells, while potential plate layout-specific variation in cell growth was accounted for by addition of a vehicle control (0.1% DMSO).
Cells were then incubated with drug compounds at 37° C. with 5% CO2 in a humidified incubator for 72 hours prior to assay.
Media was diluted with CellTitre AQueous One Solution (Promega, Australia; Cat # G3580) according to manufacturer's instructions to produce a final concentration of 317 μg/mL.
Cell culture supernatants were then aspirated from wells and replaced with 100 μL of CellTitre solution. Triplicate cell-free control wells containing only CellTitre solution were also included in each assay.
Cells were then incubated at 37° C. with 5% CO2 in a humidified incubator for 1 hour at which time absorbance was read at 490 nm with an EnVision microplate reader (Perkin Elmer, Australia).
When analysing data, background absorbance (taken from cell-free control wells) was subtracted from each reading. […] For each drug concentration the mean (±SEM) is calculated and graphed using GraphPad Prism (version 5). A sigmoidal curved is fitted to the data and used to calculate the IC50 of each compound.

Where [4] appears, read: intact Jurkat cells, read-out: Des 1 IC50.

Read-outs that look alike come from different tables or passages of the source.

T2 sequence (Q9NYA1 whole entry): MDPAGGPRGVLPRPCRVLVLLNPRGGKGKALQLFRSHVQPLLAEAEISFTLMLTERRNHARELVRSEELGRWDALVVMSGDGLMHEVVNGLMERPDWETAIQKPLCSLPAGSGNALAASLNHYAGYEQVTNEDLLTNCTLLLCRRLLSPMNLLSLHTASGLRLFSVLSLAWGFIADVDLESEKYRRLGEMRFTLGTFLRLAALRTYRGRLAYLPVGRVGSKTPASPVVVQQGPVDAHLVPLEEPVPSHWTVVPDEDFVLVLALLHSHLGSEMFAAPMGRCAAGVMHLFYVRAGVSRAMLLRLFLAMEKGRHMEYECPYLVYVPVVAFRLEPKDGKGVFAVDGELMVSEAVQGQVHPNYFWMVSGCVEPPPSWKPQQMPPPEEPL

The IC50 is the concentration needed to halve the response being measured. With `Oc1ccc(Nc2nnc(-c3ccc(Cl)cc3)o2)cc1` [Example E-1, 5-(4-Chlorophenyl)-N-(4-hydroxyphenyl)-1,3,4-oxadiazol-2-amine], the 50% inhibitory concentration (IC50) in experiment [1] (setting [4]) was in the range of 0.1 to 1 µM.
Regarding `Oc1ccc(Nc2nnc(-c3ccc(Cl)cc3)s2)cc1` [Example E-2, 4-((5-(4-Chlorophenyl)-1,3,4-thiadiazol-2-yl)amino)phenol], the half-inhibitory concentration (IC50) in experiment [1] (setting [4]) lay within 1 to 10 µM.
As for `Oc1ccc(Nc2noc(-c3ccc(Cl)cc3)n2)cc1` [Example E-3, 4-((5-(4-Chlorophenyl)-1,2,4-oxadiazol-3-yl)amino)phenol], in experiment [1] (setting [4]), the IC50 fell in the range of 1 to 10 µM.
Regarding `Oc1ccc(Nc2nc(-c3ccc(Cl)cc3)no2)cc1` [Example E-4, 4-((3-(4-Chlorophenyl)-1,2,4-oxadiazol-5-yl)amino)phenol], the IC50 in experiment [1] (setting [4]) was 1 to 10 µM.
In the case of `O=C(Nc1ccc(O)cc1)c1csc(-c2ccc(Cl)cc2)n1` [Example E-6, 2-(4-Chlorophenyl)-N-(4-hydroxyphenyl)thiazole-4-carboxamide], the activity at 10 µM in experiment [2] was in the range of 20 to 50%. Besides, the remaining activity at 10 µM on recombinant human SphK2 fell in the range of 50 to 80%. For the same molecule, the IC50 in experiment [3] is > 100 µM.
In the case of `N/C(=N\O)c1ccc(Nc2nnc(-c3ccc(Cl)cc3)o2)cc1` [Example E-9, (Z)-4-((5-(4-Chlorophenyl)-1,3,4-oxadiazol-2-yl)amino)-N′-hydroxybenzimidamide], in experiment [1] (setting [4]), the IC50 lay within 1 to 10 µM.
For `Cc1nc(-c2ccc(Nc3nnc(-c4ccc(Cl)cc4)o3)cc2)no1` [Example E-10, 5-(4-Chlorophenyl)-N-(4-(5-methyl-1,2,4-oxadiazol-3-yl)phenyl)-1,3,4-oxadiazol-2-amine], the activity at 10 µM in experiment [2] was 80 to 100%. Further, at recombinant human SphK2, the remaining activity at 10 µM lay within 50 to 80%. The IC50 in experiment [3] was > 100 µM.
For `O=C(Nc1ccc(-c2nnc(-c3ccc(Cl)cc3)o2)cc1)[C@H]1NCC[C@@H]1O` [Example E-12, (2S,3S)-2-((4-(5-(4-chlorophenyl)-1,3,4-oxadiazol-2-yl)phenyl)carbamoyl)-3-hydroxypyrrolidin-1-ium chloride], in that order: 50 to 80%, 20 to 50% and > 100 µM.
With `N=C(N)c1ccc(-c2nnc(-c3ccccc3)o2)cc1` [Example E-17, Amino(4-(5-phenyl-1,3,4-oxadiazol-2-yl)phenyl)methaniminium chloride], the activity at 10 µM in experiment [2] is 200 to 300%. Moreover, on recombinant human SphK2, the remaining activity at 10 µM is 80 to 100%. Also, the half-maximal inhibitory concentration (IC50) in experiment [3] was > 100 µM.
For `O=C(NCc1ccc(-c2nnc(-c3ccc(Cl)cc3)o2)cc1)[C@H]1NCC[C@@H]1O` [Example E-18, (2S,3S)-2-((4-(5-(4-chlorophenyl)-1,3,4-oxadiazol-2-yl)benzyl)carbamoyl)-3-hydroxypyrrolidin-1-ium chloride], in experiment [2], the activity at 10 µM was 50 to 80%. Besides, on recombinant human SphK2, the remaining activity at 10 µM lay within 80 to 100%. The IC50 in experiment [3] is > 100 µM.
On to `N=C(N)c1ccc(Nc2nnc(-c3ccccc3)o2)cc1` [Example E-20, Amino(4-((5-phenyl-1,3,4-oxadiazol-2-yl)amino)phenyl)methaniminium chloride], for which the activity at 10 µM in experiment [2] was 80 to 100%. Also, the remaining activity at 10 µM on recombinant human SphK2 is 20 to 50%. Also, in experiment [3], the concentration for half-maximal inhibition (IC50) was > 100 µM.
Consider `Cl.N=C(N)c1ccc(Nc2nnc(-c3ccc(Cl)cc3)o2)cc1` [Example E-23, Amino(4-((5-(4-chlorophenyl)-1,3,4-oxadiazol-2-yl)amino)phenyl)methaniminium chloride], for which the “Des 1 IC50” value in experiment [1] (intact Jurkat cells) is “inactive”.
With `Oc1ccc(Nc2nnc(-c3ccc(I)cc3)o2)cc1` [Example E-24, 4-((5-(4-Iodophenyl)-1,3,4-oxadiazol-2-yl)amino)phenol], the IC50 in experiment [1] (setting [4]) is 1 to 10 µM.
Take `Oc1ccc(Nc2nnc(-c3ccc(C(F)(F)F)cc3)o2)cc1` [Example E-26, 4-((5-(4-(Trifluoromethyl)phenyl)-1,3,4-oxadiazol-2-yl)amino)phenol]: in experiment [1], the 50% inhibitory concentration (IC50) lay within 0.1 to 1 µM.
`Oc1ccc(Nc2nsc(-c3ccc(Cl)cc3)n2)cc1` [Example E-31, 4-((5-(4-chlorophenyl)-1,2,4-thiadiazol-3-yl)amino)phenol]: the concentration for half-maximal inhibition (IC50) in experiment [1] (setting [4]) is 0.1 to 1 µM.
Still for that read-out and setting: the value for `Oc1ccc(Nc2nc(-c3ccc(Cl)cc3)ns2)cc1` [Example E-32, 4-((3-(4-chlorophenyl)-1,2,4-thiadiazol-5-yl)amino)phenol] was 0.1 to 1 µM.
